Experimental data reported in the RepoRT retention time repository.

Experiment: Agilent InfinityLab Poroshell 120 SB-C18, 100 × 2.1 mm, 2.7 µm, 40 °C, 0.2 mL/min, estimated dead time 1.1 min; A: water + 0.1% formic acid; B: acetonitrile; gradient (min/%B) 0/2 15/95 16/95
Settings: stereoisomer not certain

Structure (SMILES) | LC retention time [min]
CC(O)C(=O)O (stereo unspecified) | 3.37
CC(=O)NC1C(OP(=O)(O)OP(=O)(O)OCC2OC(n3ccc(=O)[nH]c3=O)C(O)C2O)OC(CO)C(O)C1O (stereo unspecified) | 5.47
CC(=O)SCCNC(=O)CCNC(=O)C(O)C(C)(C)COP(=O)(O)OP(=O)(O)OCC1OC(n2cnc3c(N)ncnc32)C(O)C1OP(=O)(O)O (stereo unspecified) | 11.7
O=c1[nH]cnc2nc[nH]c12 | 2.51
O=C(O)C1CC(O)C=N1 (stereo unspecified) | 2.51
CCCCCCCCCCCCCC=CC(O)C(N)CO (stereo unspecified) | 15.1
NC(=O)c1ncn(C2OC(COP(=O)(O)O)C(O)C2O)c1NC=O (stereo unspecified) | 1.34
Cc1cn(C2CC(O)C(CO)O2)c(=O)[nH]c1=O (stereo unspecified) | 14.7
CCCCCCCCCCCCCC=CC(O)C(COC1OC(CO)C(OC2OC(CO)C(O)C(O)C2O)C(O)C1O)NC(=O)CCCCCCCCCCCCCCCCCCCCC (stereo unspecified) | 2.36
CC(O)(CC(=O)O)CC(=O)SCCNC(=O)CCNC(=O)C(O)C(C)(C)COP(=O)(O)OP(=O)(O)OCC1OC(n2cnc3c(N)ncnc32)C(O)C1OP(=O)(O)O (stereo unspecified) | 3.78
O=C(O)CCC(=O)O | 6.53
CCCCCCCCCC(O)CC(=O)O (stereo unspecified) | 6.12
CC(=O)NC1C(O)OC(COP(=O)(O)O)C(O)C1O (stereo unspecified) | 1.37
C=C(CC)C(=O)O | 1.62
OCC1OC(O)C(O)C(O)C1O (stereo unspecified) | 12
CC=CC(=O)O | 8.13
NCC(=O)NC1OC(COP(=O)(O)O)C(O)C1O (stereo unspecified) | 13.5
O=C(O)CC(O)C(=O)O (stereo unspecified) | 4.45
NC(CCC(=O)NC(CS)C(=O)NCC(=O)O)C(=O)O (stereo unspecified) | 2.1

Structure (SMILES) | LC retention time [min]
Nc1ncnc2c1ncn2C1OC(COP(=O)(O)OP(=O)(O)O)C(O)C1O (stereo unspecified) | 2.87
CCCCCC(O)C=CC1C(O)CC(=O)C1CC=CCCCC(=O)O (stereo unspecified) | 13.3
COc1cc(C(O)C(=O)O)ccc1O (stereo unspecified) | 1.37
OCC1OC(OC2(CO)OC(CO)C(O)C2O)C(O)C(O)C1O (stereo unspecified) | 4.1
NC(CC(=O)O)C(=O)O (stereo unspecified) | 1.34
O=c1ccn(C2OC(COP(=O)(O)OP(=O)(O)OP(=O)(O)O)C(O)C2O)c(=O)[nH]1 (stereo unspecified) | 10.1
Nc1nc2c(ncn2C2CC(O)C(CO)O2)c(=O)[nH]1 (stereo unspecified) | 5.19
NC(CCC(=O)NC(CSSCC(NC(=O)CCC(N)C(=O)O)C(=O)NCC(=O)O)C(=O)NCC(=O)O)C(=O)O (stereo unspecified) | 2.87
NCC(=O)O | 2.87
CCCCCCCCCCCCCCCC(=O)OC(CC(=O)[O-])C[N+](C)(C)C (stereo unspecified) | 15.6
O=P(O)(O)OCC1OC(O)C(O)C(O)C1O (stereo unspecified) | 1.37
Nc1ccn(C2CC(O)C(COP(=O)(O)OP(=O)(O)OP(=O)(O)O)O2)c(=O)n1 (stereo unspecified) | 4.62
NC1C(O)OC(CO)C(O)C1O (stereo unspecified) | 1.62
NC(=O)c1cccnc1 | 2.46
CCC(C)C(N)C(=O)O (stereo unspecified) | 2.94
NC(=O)c1ncn(C2OC(COP(=O)(O)O)C(O)C2O)c1N (stereo unspecified) | 8.32
CC(O)C=O (stereo unspecified) | 1.48
CC(C)CCC=O | 1.62
CC(CCCC(CO)COS(=O)(=O)O)C1CCC2C3C(O)CC4CC(O)CCC4(C)C3CC(O)C12C (stereo unspecified) | 14.7

Structure (SMILES) | LC retention time [min]
OCC(O)CO | 3.76
CCCCCC=CCC=CC=CC=CC(SCC(N)C(=O)NCC(=O)O)C(O)CCCC(=O)O (stereo unspecified) | 8.91
Nc1ccn(C2CC(O)C(CO)O2)c(=O)n1 (stereo unspecified) | 4.1
NCCCCNCCCN | 1.45
Nc1ncnc2c1ncn2C1OC(CO)C(O)C1O (stereo unspecified) | 4.62
CC(C)CC(N)C(=O)O (stereo unspecified) | 6.01
O=C(CO)C(O)C(O)C(O)COP(=O)(O)O (stereo unspecified) | 1.34
O=c1ccn(C2OC(COP(=O)(O)OP(=O)(O)O)C(O)C2O)c(=O)[nH]1 (stereo unspecified) | 13
O=C(O)C1CCCN1 (stereo unspecified) | 1.41
CCCCCCCCCC=CC(=O)O | 12.7
Nc1nc2c(ncn2C2CC(O)C(COP(=O)(O)OP(=O)(O)O)O2)c(=O)[nH]1 (stereo unspecified) | 11.7
CC12CCC3C(CCC4=CC(=O)CCC43CO)C1CCC2=O (stereo unspecified) | 6.37
O=C(O)C(=O)Cc1ccccc1 | 1.62
CC(=O)C(=O)O | 2.51
O=C(O)c1cc(=O)[nH]c(=O)n1C1OC(COP(=O)(O)O)C(O)C1O (stereo unspecified) | 8.32
CCCC(O)CC(=O)O (stereo unspecified) | 12.4
CC(=O)NC1C(O)OC(CO)C(O)C1O (stereo unspecified) | 2.94
NC(=O)C1=CN(C2OC(COP(=O)(O)OP(=O)(O)OCC3OC(n4cnc5c(N)ncnc54)C(OP(=O)(O)O)C3O)C(O)C2O)C=CC1 (stereo unspecified) | 8.58
